Experimental data published in ChEMBL document CHEMBL3217581, “Synthesis and selective inhibition of human monoamine oxidases of a large scaffold of (4,5-substituted-thiazol-2-yl)hydrazones” (Medchemcomm, 2010).

Assays:
[1] = target: T1, Amine oxidase [flavin-containing] A (Homo sapiens, UniProt P21397); assay: Inhibition of human MAO-A expressed in baculovirus infected BTI-TN-5B1-4 insect cells using p-tyramine as substrate assessed as hydrogen peroxide production by fluorimetric method
T1 sequence (P21397 whole entry): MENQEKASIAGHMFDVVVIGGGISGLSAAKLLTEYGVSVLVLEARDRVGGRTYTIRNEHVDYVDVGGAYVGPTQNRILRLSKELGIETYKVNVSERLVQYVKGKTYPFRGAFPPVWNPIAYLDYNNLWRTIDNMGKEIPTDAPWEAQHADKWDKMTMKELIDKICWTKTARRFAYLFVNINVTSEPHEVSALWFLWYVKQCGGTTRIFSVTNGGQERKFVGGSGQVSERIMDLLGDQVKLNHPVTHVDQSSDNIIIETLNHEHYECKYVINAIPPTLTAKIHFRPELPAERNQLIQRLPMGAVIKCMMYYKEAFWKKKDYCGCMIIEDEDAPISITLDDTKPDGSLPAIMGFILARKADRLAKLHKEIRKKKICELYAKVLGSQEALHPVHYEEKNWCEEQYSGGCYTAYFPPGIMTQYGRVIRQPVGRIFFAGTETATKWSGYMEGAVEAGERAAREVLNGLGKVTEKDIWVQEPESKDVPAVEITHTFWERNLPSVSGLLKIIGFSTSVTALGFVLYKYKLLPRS

[2] = species: Homo sapiens; assay: Selectivity index, ratio of IC50 for human MAO-B to IC50 for human MAO-A
[3] = target: T2, Amine oxidase [flavin-containing] B (Homo sapiens, UniProt P27338); assay: biochemical; assay type: cell-based, BTI-TN-5B1-4
T2 sequence (P27338 whole entry): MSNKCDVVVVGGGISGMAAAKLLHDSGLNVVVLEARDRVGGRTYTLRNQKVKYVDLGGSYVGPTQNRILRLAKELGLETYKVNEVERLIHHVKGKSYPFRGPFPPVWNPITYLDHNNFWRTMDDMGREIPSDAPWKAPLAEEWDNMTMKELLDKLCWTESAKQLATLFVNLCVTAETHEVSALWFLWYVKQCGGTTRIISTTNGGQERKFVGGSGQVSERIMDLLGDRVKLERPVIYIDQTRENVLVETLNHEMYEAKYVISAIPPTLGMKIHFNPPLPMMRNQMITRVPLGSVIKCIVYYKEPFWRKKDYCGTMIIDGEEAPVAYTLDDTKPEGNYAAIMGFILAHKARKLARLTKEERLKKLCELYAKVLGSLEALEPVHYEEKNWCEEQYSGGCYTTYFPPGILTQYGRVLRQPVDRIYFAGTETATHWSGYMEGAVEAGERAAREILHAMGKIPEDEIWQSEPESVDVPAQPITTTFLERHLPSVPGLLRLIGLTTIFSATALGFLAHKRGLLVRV
Description: Inhibition of human MAO-B expressed in baculovirus infected BTI-TN-5B1-4 insect cells using p-tyramine as substrate assessed as hydrogen peroxide production by fluorimetric method

[4] = target: T1, Amine oxidase [flavin-containing] A; assay: Inhibition of human MAO-A expressed in baculovirus infected BTI-TN-5B1-4 insect cells using p-tyramine as substrate assessed as hydrogen peroxide production at 100 uM by fluorimetric method; details: BTI-TN-5B1-4, human
[5] = target: T2, Amine oxidase [flavin-containing] B; assay: Inhibition of human MAO-B expressed in baculovirus infected BTI-TN-5B1-4 insect cells using p-tyramine as substrate assessed as hydrogen peroxide production at 100 uM by fluorimetric method; details: BTI-TN-5B1-4, human
[6] = target: T2, Amine oxidase [flavin-containing] B; assay: Inhibition of human MAO-B expressed in baculovirus infected BTI-TN-5B1-4 insect cells using p-tyramine as substrate assessed as hydrogen peroxide production at 1 mM by fluorimetric method; details: bti-tn-5b1-4, 1000 µM

CC1CCC/C1=N\Nc1nc(-c2ccc3ccccc3c2)cs1 (configuration not stated)
IC50 [1]: 2600 nM
Ratio IC50 [2]: 1.11
IC50 [3]: 2880 nM

Cc1sc(N/N=C2\CCCC(C)C2)nc1-c1ccccc1 (configuration not stated)
IC50 [1]: 3630 nM
Ratio IC50 [2]: 0.76
IC50 [3]: 2880 nM

Cc1sc(N/N=C/c2cccs2)nc1-c1ccccc1
IC50 [1]: 3380 nM
Ratio IC50 [2]: 0.9
IC50 [3]: 3050 nM

Cc1sc(NN=C2CCCC2)nc1-c1ccccc1
IC50 [1]: 550 nM
Ratio IC50 [2]: 2.56
IC50 [3]: 1410 nM

C(=N\Nc1nc(-c2ccc3ccccc3c2)cs1)/c1cccnc1
IC50 [1]: 2570 nM
Ratio IC50 [2]: 1.85
IC50 [3]: 4760 nM

C/C(=N\Nc1nc(-c2ccccc2)c(C)s1)C1CCCCC1
IC50 [1]: 7650 nM
Ratio IC50 [2]: 0.83
IC50 [3]: 6140 nM

C/C(CC(C)C)=N/Nc1nc(-c2ccc3ccccc3c2)cs1
IC50 [1]: 2310 nM
Ratio IC50 [2]: 1.54
IC50 [3]: 3560 nM

CC(C)=NNc1nc(-c2ccc3ccccc3c2)cs1
IC50 [1]: 1560 nM
Ratio IC50 [2]: 2.27
IC50 [3]: 3550 nM

CCC/C(C)=N\Nc1nc(-c2ccccc2)c(C)s1
IC50 [1]: 2520 nM
Ratio IC50 [2]: 0.9
IC50 [3]: 2310 nM

C/C(=N\Nc1nc(-c2ccccc2)c(C)s1)c1ccco1
IC50 [1]: 1680 nM
Ratio IC50 [2]: 1.25
IC50 [3]: 2100 nM

Cc1sc(N/N=C2\CCCC2C)nc1-c1ccccc1 (configuration not stated)
IC50 [1]: 2440 nM
Ratio IC50 [2]: 0.56
IC50 [3]: 1330 nM

C/C(=N\Nc1nc(-c2ccccc2)c(C)s1)c1ccccn1
IC50 [1]: 2390 nM
Ratio IC50 [2]: 0.37
IC50 [3]: 880 nM

CC1CC/C(=N\Nc2nc(-c3ccc4ccccc4c3)cs2)C1 (configuration not stated)
IC50 [1]: 1910 nM
Ratio IC50 [2]: 1.82
IC50 [3]: 3490 nM

C/C(=N\Nc1nc(-c2ccccc2)c(C)s1)c1cccs1
IC50 [1]: 2670 nM
Ratio IC50 [2]: 0.9
IC50 [3]: 2340 nM

Cc1sc(N/N=C/c2cccc3ccccc23)nc1-c1ccccc1
inhibition at 100 µM [4]: 40%
inhibition at 100 µM [5]: 40%

C(=N\Nc1nc(-c2ccc3ccccc3c2)cs1)/c1ccco1
IC50 [1]: 2040 nM
Ratio IC50 [2]: 1.35
IC50 [3]: 2760 nM

C/C(=N\Nc1nc(-c2ccccc2)c(C)s1)c1ccc2ccccc2c1
inhibition at 100 µM [4]: 40%
inhibition at 100 µM [5]: 40%

CC1CCC/C(=N\Nc2nc(-c3ccc4ccccc4c3)cs2)C1 (configuration not stated)
IC50 [1]: 1940 nM
Ratio IC50 [2]: 5.56
IC50 [3]: 10800 nM

CCCC/C(CC)=N\Nc1nc(-c2ccccc2)c(C)s1
IC50 [1]: 4130 nM
Ratio IC50 [2]: 1.16
IC50 [3]: 4780 nM

CCCCCC/C(C)=N\Nc1nc(-c2ccccc2)c(C)s1
IC50 [1]: 3910 nM
Ratio IC50 [2]: 1.04
IC50 [3]: 3750 nM

C/C(=N\Nc1nc(-c2ccc3ccccc3c2)cs1)C1CCCCC1
IC50 [1]: 6950 nM
Ratio IC50 [2]: > 14.3
inhibition at 100 µM [5]: 40%

C/C(=N\Nc1nc(-c2ccc3ccccc3c2)cs1)c1ccc2ccccc2c1
inhibition at 100 µM [4]: 40%
inhibition at 100 µM [5]: 40%

C(=N\Nc1nc(-c2ccc3ccccc3c2)cs1)/c1ccc2c(c1)OCO2
IC50 [1]: 5920 nM
Ratio IC50 [2]: > 16.7
inhibition at 100 µM [5]: 40%

CC/C(C)=N\Nc1nc(-c2ccccc2)c(C)s1
IC50 [1]: 1550 nM
Ratio IC50 [2]: 1
IC50 [3]: 1530 nM

C(=N\Nc1nc(-c2ccc3ccccc3c2)cs1)/c1cccs1
IC50 [1]: 2710 nM
Ratio IC50 [2]: 1.72
IC50 [3]: 4630 nM

C/C(=N\Nc1nc(-c2ccc3ccccc3c2)cs1)c1cccs1
IC50 [1]: 3730 nM
Ratio IC50 [2]: 3.85
IC50 [3]: 14500 nM

CC/C(C)=N\Nc1nc(-c2ccc3ccccc3c2)cs1
IC50 [1]: 1740 nM
Ratio IC50 [2]: 1.52
IC50 [3]: 2650 nM

C(=N\Nc1nc(-c2ccc3ccccc3c2)cs1)/c1ccncc1
IC50 [1]: 8670 nM
Ratio IC50 [2]: 0.83
IC50 [3]: 7480 nM

Cc1sc(N/N=C2\CCCCC2C)nc1-c1ccccc1 (configuration not stated)
IC50 [1]: 3230 nM
Ratio IC50 [2]: 0.34
IC50 [3]: 1110 nM

Cc1sc(NN=C2CCC(C)CC2)nc1-c1ccccc1 (configuration not stated)
IC50 ([1]; bti-tn-5b1-4): 3900 nM
Ratio IC50 [2]: 0.66
IC50 ([3]; bti-tn-5b1-4): 2520 nM

Cc1sc(N/N=C2\CCC(C)C2)nc1-c1ccccc1 (configuration not stated)
IC50 [1]: 2290 nM
Ratio IC50 [2]: 1.01
IC50 [3]: 2310 nM

CCC/C(C)=N\Nc1nc(-c2ccc3ccccc3c2)cs1
IC50 [1]: 1810 nM
Ratio IC50 [2]: 1.72
IC50 [3]: 3110 nM

CCCC/C(CC)=N\Nc1nc(-c2ccc3ccccc3c2)cs1
IC50 [1]: 2930 nM
Ratio IC50 [2]: 1.28
IC50 [3]: 3760 nM

CCC(CC)=NNc1nc(-c2ccccc2)c(C)s1
IC50 [1]: 1650 nM
Ratio IC50 [2]: 1.49
IC50 [3]: 2450 nM

Cc1sc(N/N=C/c2ccncc2)nc1-c1ccccc1
IC50 [1]: 8290 nM
Ratio IC50 [2]: 0.16
IC50 [3]: 1370 nM

C/C(=N\Nc1nc(-c2ccc3ccccc3c2)cs1)c1ccco1
IC50 [1]: 1770 nM
Ratio IC50 [2]: 1.3
IC50 [3]: 2290 nM

Cc1sc(N/N=C/c2ccco2)nc1-c1ccccc1
IC50 [1]: 1790 nM
Ratio IC50 [2]: 1.72
IC50 [3]: 3060 nM

C/C(=N\Nc1nc(-c2ccccc2)c(C)s1)c1ccccc1
IC50 [1]: 2240 nM
Ratio IC50 [2]: 1
IC50 [3]: 2230 nM

C/C(CC(C)C)=N/Nc1nc(-c2ccccc2)c(C)s1
IC50 [1]: 2400 nM
Ratio IC50 [2]: 1.16
IC50 [3]: 2780 nM

C/C(=N\Nc1nc(-c2ccccc2)c(C)s1)c1nccs1
IC50 [1]: 6520 nM
Ratio IC50 [2]: 0.043
IC50 [3]: 280 nM

Cc1sc(N/N=C/c2c[nH]c3ccccc23)nc1-c1ccccc1
IC50 [1]: 3120 nM
Ratio IC50 [2]: 0.45
IC50 [3]: 1400 nM

CCCCC/C(C)=N\Nc1nc(-c2ccc3ccccc3c2)cs1
IC50 [1]: 2450 nM
Ratio IC50 [2]: 6.67
IC50 [3]: 16000 nM

Cc1sc(N/N=C/c2cccnc2)nc1-c1ccccc1
IC50 [1]: 1830 nM
Ratio IC50 [2]: 1.22
IC50 [3]: 2220 nM

CCCCCC/C(C)=N\Nc1nc(-c2ccc3ccccc3c2)cs1
IC50 [1]: 15800 nM
Ratio IC50 [2]: > 6.25
inhibition at 100 µM [5]: 40%

C/C(=N\Nc1nc(-c2ccc3ccccc3c2)cs1)c1cc2ccccc2oc1=O
IC50 [1]: 6470 nM
Ratio IC50 [2]: 1.67
IC50 [3]: 10800 nM

Cc1sc(N/N=C/c2ccc3c(c2)OCO3)nc1-c1ccccc1
IC50 [1]: 8630 nM
Ratio IC50 [2]: 0.76
IC50 [3]: 6570 nM

O=C(NCCN1CCOCC1)c1ccc(Cl)cc1 [MOCLOBEMIDE]
inhibition (INH) [6]: Not Active

C/C(=N\Nc1nc(-c2ccc3ccccc3c2)cs1)c1ccccc1
IC50 [1]: 2000 nM
Ratio IC50 [2]: 3.13
IC50 [3]: 6230 nM

CCC(CC)=NNc1nc(-c2ccc3ccccc3c2)cs1
IC50 [1]: 1860 nM
Ratio IC50 [2]: 1.25
IC50 [3]: 2320 nM

C(=N\Nc1nc(-c2ccc3ccccc3c2)cs1)/c1cccc2ccccc12
IC50 [1]: 16400 nM
Ratio IC50 [2]: 1.41
IC50 [3]: 22900 nM

C/C(=N\Nc1nc(-c2ccccc2)c(C)s1)c1cc2ccccc2oc1=O
IC50 [1]: 9180 nM
Ratio IC50 [2]: 0.33
IC50 [3]: 3020 nM

C=CCC/C(C)=N\Nc1nc(-c2ccc3ccccc3c2)cs1
IC50 [1]: 1370 nM
Ratio IC50 [2]: 2.86
IC50 [3]: 3940 nM

CCCCC/C(C)=N\Nc1nc(-c2ccccc2)c(C)s1
IC50 [1]: 3690 nM
Ratio IC50 [2]: 1.64
IC50 [3]: 6000 nM

Cc1sc(NN=C2CCCCCCC2)nc1-c1ccccc1
IC50 [1]: 7070 nM
Ratio IC50 [2]: 0.32
IC50 [3]: 2310 nM

C(=N\Nc1nc(-c2ccc3ccccc3c2)cs1)/c1c[nH]c2ccccc12
IC50 [1]: 2340 nM
Ratio IC50 [2]: 2.56
IC50 [3]: 5990 nM

Cc1sc(NN=C2CCCCCC2)nc1-c1ccccc1
IC50 [1]: 2110 nM
Ratio IC50 [2]: 0.9
IC50 [3]: 1960 nM

CC(C)=NNc1nc(-c2ccccc2)c(C)s1
IC50 [1]: 2550 nM
Ratio IC50 [2]: 2.08
IC50 [3]: 5280 nM

Cc1sc(NN=C2CCCCC2)nc1-c1ccccc1
IC50 [1]: 1780 nM
Ratio IC50 [2]: 1.01
IC50 [3]: 1790 nM

C=CCC/C(C)=N\Nc1nc(-c2ccccc2)c(C)s1
IC50 [1]: 6970 nM
Ratio IC50 [2]: 1.27
IC50 [3]: 8850 nM
